Assay results from PubChem BioAssay (NCI).
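48-hour exposure; five concentrations; linearly interpolated endpoints. TGI is the concentration that stops growth completely.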

How the values were obtained:
Assay in all cases: DTP human tumour cell line panel, 48 h
[1] = tested on: NCI-H226 lung
[2] = tested on: NCI/ADR-RES ovarian
[3] = tested on: HOP-62 NSCLC
[4] = tested on: SW-620 colon
[5] = tested on: COLO 205 colon
[6] = tested on: SK-MEL-2 melanoma
[7] = tested on: SNB-19 CNS
[8] = tested on: OVCAR-3 ovarian
[9] = tested on: MCF7 breast
[10] = tested on: CCRF-CEM leukemia
[11] = tested on: SNB-75 CNS
[12] = tested on: 786-0 renal
[13] = tested on: NCI-H23 lung
[14] = tested on: DU-145 prostate
[15] = tested on: OVCAR-5 ovarian
[16] = tested on: OVCAR-4 ovarian
[17] = tested on: OVCAR-8 ovarian
[18] = tested on: HS 578T breast
[19] = tested on: KM12 colon
[20] = tested on: SN12C renal
[21] = tested on: EKVX NSCLC
[22] = tested on: NCI-H522 lung
[23] = tested on: MDA-MB-231 breast
[24] = tested on: UACC-62 melanoma
[25] = tested on: UO-31 renal
[26] = tested on: LOX IMVI melanoma
[27] = tested on: BT-549 breast
[28] = tested on: RPMI-8226 leukemia
[29] = tested on: A498 renal
[30] = tested on: IGROV1 ovarian
[31] = tested on: T-47D breast
[32] = tested on: K-562 leukemia
[33] = tested on: HL-60(TB) leukemia
[34] = tested on: SK-MEL-5 melanoma
[35] = tested on: CAKI-1 renal
[36] = tested on: TK-10 renal
[37] = tested on: UACC-257 melanoma
[38] = tested on: ACHN renal
[39] = tested on: HT29 colon
[40] = tested on: SR leukemia
[41] = tested on: HCT-15 colon
[42] = tested on: A549 NSCLC
[43] = tested on: HCT-116 colon
[44] = tested on: SF-268 CNS
[45] = tested on: SK-MEL-28 melanoma
[46] = tested on: MOLT-4 leukemia
[47] = tested on: U251 CNS
[48] = tested on: PC-3 prostate
[49] = tested on: SK-OV-3 ovarian
[50] = tested on: MDA-MB-435
[51] = tested on: SF-539 CNS
[52] = tested on: M14 melanoma
[53] = tested on: SF-295 CNS
[54] = tested on: MDA-N
[55] = tested on: HCC-2998 colon
[56] = tested on: HOP-92 NSCLC
[57] = tested on: MALME-3M melanoma
[58] = tested on: NCI-H460 lung
[59] = tested on: RXF 393 renal

Question: `CCNCC(O)COc1ccc2c(c1)[n+]([O-])nc(N)[n+]2[O-]` (stereo not given) was tested. Which TGI [1] did it give?
Answer: > 100 µM

Question: And the TGI [2]?
Answer: > 100 µM

Question: What about the TGI [3] of the same compound?
Answer: > 100 µM

Question: What about the TGI [4] of the same compound?
Answer: > 100 µM

Question: What about the TGI [5] of the same compound?
Answer: > 100 µM

Question: What about the TGI [6] of the same compound?
Answer: > 100 µM

Question: And the TGI [7]?
Answer: > 100 µM

Question: What about the TGI [8] of the same compound?
Answer: > 100 µM

Question: And the TGI [9]?
Answer: > 100 µM

Question: What about the TGI [10] of the same compound?
Answer: > 100 µM

Question: What about the TGI [11] of the same compound?
Answer: > 100 µM

Question: What about the TGI [12] of the same compound?
Answer: > 100 µM

Question: What about the TGI [13] of the same compound?
Answer: > 100 µM

Question: What about the TGI [14] of the same compound?
Answer: > 100 µM

Question: And the TGI [15]?
Answer: > 100 µM

Question: And the TGI [16]?
Answer: > 100 µM

Question: And the TGI [17]?
Answer: > 100 µM

Question: What about the TGI [18] of the same compound?
Answer: > 100 µM

Question: And the TGI [19]?
Answer: > 100 µM

Question: And the TGI [20]?
Answer: > 100 µM

Question: And the TGI [21]?
Answer: > 100 µM

Question: What about the TGI [22] of the same compound?
Answer: 43.6 µM

Question: And the TGI [23]?
Answer: > 100 µM

Question: And the TGI [24]?
Answer: 69.8 µM

Question: What about the TGI [25] of the same compound?
Answer: > 100 µM

Question: What about the TGI [26] of the same compound?
Answer: 27.3 µM

Question: And the TGI [27]?
Answer: > 100 µM

Question: And the TGI [28]?
Answer: > 100 µM

Question: And the TGI [29]?
Answer: > 100 µM

Question: What about the TGI [30] of the same compound?
Answer: > 100 µM

Question: What about the TGI [31] of the same compound?
Answer: > 100 µM

Question: What about the TGI [32] of the same compound?
Answer: > 100 µM

Question: What about the TGI [33] of the same compound?
Answer: > 100 µM

Question: And the TGI [34]?
Answer: > 100 µM

Question: And the TGI [35]?
Answer: > 100 µM

Question: And the TGI [36]?
Answer: > 100 µM

Question: And the TGI [37]?
Answer: > 100 µM

Question: And the TGI [38]?
Answer: > 100 µM

Question: What about the TGI [39] of the same compound?
Answer: > 100 µM

Question: What about the TGI [40] of the same compound?
Answer: > 100 µM

Question: What about the TGI [41] of the same compound?
Answer: > 100 µM

Question: What about the TGI [42] of the same compound?
Answer: > 100 µM

Question: And the TGI [43]?
Answer: > 100 µM

Question: And the TGI [44]?
Answer: > 100 µM

Question: And the TGI [45]?
Answer: > 100 µM

Question: What about the TGI [46] of the same compound?
Answer: 56 µM

Question: And the TGI [47]?
Answer: > 100 µM

Question: And the TGI [48]?
Answer: > 100 µM

Question: And the TGI [49]?
Answer: 82.1 µM

Question: What about the TGI [50] of the same compound?
Answer: > 100 µM

Question: What about the TGI [51] of the same compound?
Answer: > 100 µM

Question: And the TGI [52]?
Answer: > 100 µM

Question: And the TGI [53]?
Answer: > 100 µM

Question: What about the TGI [54] of the same compound?
Answer: > 100 µM

Question: `Cc1cc2nc(N3C(=O)/C(=C/c4ccc(Oc5ccccc5)cc4)N=C3c3ccccc3)sc2cc1C` was tested. Which TGI [2] did it give?
Answer: 91.6 µM

Question: What about the TGI [3] of the same compound?
Answer: > 100 µM

Question: And the TGI [4]?
Answer: > 100 µM

Question: And the TGI [5]?
Answer: 47.6 µM

Question: And the TGI [6]?
Answer: 71.6 µM

Question: And the TGI [7]?
Answer: > 100 µM

Question: What about the TGI [8] of the same compound?
Answer: > 100 µM

Question: And the TGI [9]?
Answer: > 100 µM

Question: What about the TGI [10] of the same compound?
Answer: > 100 µM

Question: What about the TGI [11] of the same compound?
Answer: > 100 µM

Question: And the TGI [55]?
Answer: > 100 µM

Question: And the TGI [12]?
Answer: > 100 µM

Question: And the TGI [13]?
Answer: > 100 µM

Question: What about the TGI [14] of the same compound?
Answer: > 100 µM

Question: And the TGI [15]?
Answer: > 100 µM

Question: What about the TGI [56] of the same compound?
Answer: > 100 µM

Question: What about the TGI [16] of the same compound?
Answer: > 100 µM

Question: What about the TGI [17] of the same compound?
Answer: > 100 µM

Question: And the TGI [18]?
Answer: > 100 µM

Question: And the TGI [19]?
Answer: > 100 µM

Question: What about the TGI [20] of the same compound?
Answer: > 100 µM

Question: And the TGI [21]?
Answer: > 100 µM

Question: What about the TGI [22] of the same compound?
Answer: 80.5 µM

Question: What about the TGI [23] of the same compound?
Answer: > 100 µM

Question: And the TGI [24]?
Answer: > 100 µM

Question: What about the TGI [25] of the same compound?
Answer: > 100 µM

Question: And the TGI [57]?
Answer: > 100 µM

Question: And the TGI [26]?
Answer: > 100 µM

Question: And the TGI [27]?
Answer: > 100 µM

Question: What about the TGI [28] of the same compound?
Answer: 86.8 µM

Question: And the TGI [29]?
Answer: > 100 µM

Question: What about the TGI [58] of the same compound?
Answer: > 100 µM

Question: And the TGI [30]?
Answer: > 100 µM

Question: What about the TGI [31] of the same compound?
Answer: > 100 µM

Question: What about the TGI [32] of the same compound?
Answer: > 100 µM

Question: And the TGI [33]?
Answer: 63.8 µM

Question: And the TGI [34]?
Answer: > 100 µM

Question: And the TGI [35]?
Answer: > 100 µM

Question: And the TGI [36]?
Answer: > 100 µM

Question: And the TGI [37]?
Answer: > 100 µM

Question: What about the TGI [38] of the same compound?
Answer: > 100 µM

Question: What about the TGI [39] of the same compound?
Answer: > 100 µM

Question: What about the TGI [41] of the same compound?
Answer: > 100 µM

Question: And the TGI [42]?
Answer: > 100 µM

Question: What about the TGI [59] of the same compound?
Answer: > 100 µM

Question: And the TGI [43]?
Answer: > 100 µM

Question: What about the TGI [44] of the same compound?
Answer: > 100 µM

Question: What about the TGI [45] of the same compound?
Answer: > 100 µM

Question: And the TGI [46]?
Answer: > 100 µM

Question: And the TGI [47]?
Answer: > 100 µM

Question: What about the TGI [48] of the same compound?
Answer: > 100 µM

Question: And the TGI [49]?
Answer: > 100 µM

Question: What about the TGI [50] of the same compound?
Answer: 83.4 µM

Question: What about the TGI [52] of the same compound?
Answer: > 100 µM

Question: And the TGI [53]?
Answer: > 100 µM

Question: What about the TGI [54] of the same compound?
Answer: > 100 µM
